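The compound was tested at five concentrations on cells cultured in 96-well plates, with a 48-hour exposure period. The concentration for 50% growth inhibition is given as GI50.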 Active and inactive are the calls of the source. No stated cut-off is given here; in the data, active = GI50 up to about 1.1 µM and inactive = higher.
What was measured:
Assay in all cases: NCI-60 cell line screen, 48 h
M14 = system: M14
PC-3 = system: PC-3
HOP-92 = system: HOP-92
UO-31 = system: UO-31
SK-OV-3 = system: SK-OV-3
MOLT-4 = system: MOLT-4
NCI-H522 = system: NCI-H522
OVCAR-4 = system: OVCAR-4
NCI-H23 = system: NCI-H23
SW-620 = system: SW-620
SF-539 = system: SF-539
SK-MEL-5 = system: SK-MEL-5
MCF7 = system: MCF7
SR = system: SR
MDA-MB-435 = system: MDA-MB-435
RXF 393 = system: RXF 393
U-251 = system: U-251
DU-145 = system: DU-145
SK-MEL-28 = system: SK-MEL-28
RPMI-8226 = system: RPMI-8226

Measured: GI50

CC1OC(O[C@H]2CC[C@]3(C)[C@H]4CC=C5[C@@H]6[C@@H](C)[C@H](C)CC[C@]6(C(=O)O)CC[C@@]5(C(=O)O)[C@]4(C)CC[C@H]3C2(C)C)C(O)C(O)C1O (stereo not given in full)
inactive: M14 > 75 µM | PC-3 > 75 µM | HOP-92 38.3 µM | UO-31 > 75 µM | SK-OV-3 > 75 µM | MOLT-4 > 75 µM | NCI-H522 > 75 µM | OVCAR-4 > 75 µM | NCI-H23 > 75 µM | SW-620 > 75 µM | SF-539 > 75 µM | SK-MEL-5 > 75 µM | MCF7 > 75 µM | SR > 75 µM | MDA-MB-435 > 75 µM | RXF 393 > 75 µM | U-251 > 75 µM | DU-145 > 75 µM

CC(O)CC(O)(C(F)(F)F)C(F)(F)F (stereo not given)
inactive: M14 > 10 µM | PC-3 > 10 µM | UO-31 > 10 µM | SK-OV-3 > 10 µM | MOLT-4 > 10 µM | NCI-H522 > 10 µM | OVCAR-4 > 10 µM | NCI-H23 > 10 µM | SW-620 > 10 µM | SF-539 > 10 µM | SK-MEL-5 > 10 µM | SK-MEL-28 > 10 µM | MCF7 > 10 µM | SR > 10 µM | MDA-MB-435 > 10 µM | RXF 393 > 10 µM | U-251 > 10 µM | RPMI-8226 > 10 µM | DU-145 > 10 µM

Cc1nnc2n1-c1ccccc1N(Cc1ccccc1)CC2
inactive: M14 63.7 µM | PC-3 49.8 µM | HOP-92 9.55 µM | UO-31 34.5 µM | SK-OV-3 > 100 µM | MOLT-4 23.8 µM | OVCAR-4 71.9 µM | NCI-H23 60 µM | SW-620 17.2 µM | SF-539 > 100 µM | SK-MEL-5 38.2 µM | SK-MEL-28 > 100 µM | MCF7 37.4 µM | SR 30.4 µM | MDA-MB-435 51.4 µM | RXF 393 34.8 µM | U-251 50 µM | RPMI-8226 11.4 µM | DU-145 70.3 µM

CCOC(=O)C1C(c2ccc(OC)cc2)c2c(nn(-c3ccccc3)c2O)CC1(O)OCC (stereo not given)
inactive: M14 19.7 µM | PC-3 9.31 µM | HOP-92 > 100 µM | UO-31 5.46 µM | MOLT-4 2.45 µM | NCI-H522 50.4 µM | OVCAR-4 > 100 µM | NCI-H23 > 100 µM | SW-620 27.5 µM | SF-539 > 100 µM | SK-MEL-5 26.6 µM | SK-MEL-28 > 100 µM | MCF7 30.1 µM | SR 2.17 µM | MDA-MB-435 4.02 µM | U-251 > 100 µM | RPMI-8226 2.58 µM | DU-145 44.6 µM

C=C[C@H]1CN2CCc3c([nH]c4cc(O)ccc34)[C@@H]2C[C@@H]1C[C@H]1c2[nH]c3ccccc3c2CCN1C
inactive: M14 1.74 µM | PC-3 4.89 µM | HOP-92 3.39 µM | UO-31 2.09 µM | SK-OV-3 13.8 µM | MOLT-4 3.57 µM | NCI-H522 2.99 µM | OVCAR-4 7.03 µM | NCI-H23 16 µM | SW-620 1.92 µM | SF-539 1.82 µM | SK-MEL-5 1.73 µM | SK-MEL-28 1.78 µM | MCF7 2.31 µM | SR 2.67 µM | MDA-MB-435 2.01 µM | U-251 1.77 µM | DU-145 15.6 µM

OCC1OC(n2cnc3c2NC=NC[C@H]3O)CC1O (stereo not given in full)
inactive: M14 418 µM | PC-3 > 500 µM | HOP-92 398 µM | UO-31 460 µM | SK-OV-3 467 µM | MOLT-4 418 µM | NCI-H522 444 µM | OVCAR-4 470 µM | NCI-H23 486 µM | SK-MEL-5 483 µM | SK-MEL-28 493 µM | MCF7 441 µM | SR 359 µM | MDA-MB-435 > 500 µM | RXF 393 484 µM | U-251 480 µM | RPMI-8226 478 µM | DU-145 324 µM

FC(F)(F)c1ccc2nc3n(c2c1)C(c1c(Cl)cccc1Cl)SC3 (stereo not given)
inactive: M14 16 µM | PC-3 14.9 µM | HOP-92 4.65 µM | UO-31 13.8 µM | SK-OV-3 14 µM | MOLT-4 9.48 µM | NCI-H522 11.9 µM | OVCAR-4 15.8 µM | NCI-H23 15.1 µM | SW-620 17.8 µM | SF-539 15.7 µM | SK-MEL-28 14.9 µM | MCF7 16.1 µM | SR 4.24 µM | MDA-MB-435 15 µM | RXF 393 15.2 µM | U-251 17.4 µM | DU-145 17 µM

Nc1ccc2c(c1)nc1n2C(c2c(F)cccc2F)SC1 (stereo not given)
inactive: M14 > 100 µM | PC-3 > 100 µM | UO-31 97.7 µM | SK-OV-3 > 100 µM | MOLT-4 26.9 µM | NCI-H522 > 100 µM | OVCAR-4 > 100 µM | NCI-H23 > 100 µM | SW-620 > 100 µM | SF-539 > 100 µM | SK-MEL-5 47.8 µM | SK-MEL-28 > 100 µM | MCF7 > 100 µM | SR > 100 µM | MDA-MB-435 > 100 µM | RXF 393 > 100 µM | U-251 > 100 µM | RPMI-8226 > 100 µM | DU-145 > 100 µM

CC(C)c1cc(C(C)C)c(B(c2ccccc2)c2ccccc2)c(C(C)C)c1Br
inactive: M14 > 100 µM | PC-3 > 100 µM | HOP-92 > 100 µM | UO-31 > 100 µM | SK-OV-3 > 100 µM | MOLT-4 > 100 µM | NCI-H522 > 100 µM | OVCAR-4 > 100 µM | NCI-H23 > 100 µM | SW-620 > 100 µM | SF-539 > 100 µM | SK-MEL-5 > 100 µM | SK-MEL-28 > 100 µM | MCF7 > 100 µM | SR > 100 µM | MDA-MB-435 > 100 µM | RXF 393 > 100 µM | U-251 > 100 µM | DU-145 > 100 µM

N#Cc1c(-c2ccc(Cl)cc2)c2c(n(C3OC(CO)C(O)C(O)C3O)c1=S)CCC2 (stereo not given)
inactive: M14 22.6 µM | PC-3 28.4 µM | HOP-92 24.3 µM | UO-31 38.7 µM | SK-OV-3 39.5 µM | MOLT-4 10.4 µM | OVCAR-4 34 µM | NCI-H23 25.4 µM | SW-620 20.4 µM | SF-539 19.2 µM | SK-MEL-5 13.3 µM | SK-MEL-28 17.8 µM | MCF7 20.9 µM | SR 47 µM | MDA-MB-435 19.8 µM | RXF 393 21.9 µM | U-251 31 µM | RPMI-8226 45.8 µM | DU-145 42.4 µM

CCc1cc(-c2nsc(=O)o2)c(S(=O)(=O)CC)s1
inactive: M14 76 µM | PC-3 33.4 µM | HOP-92 98.9 µM | UO-31 > 100 µM | SK-OV-3 > 100 µM | MOLT-4 > 10 µM | NCI-H522 22.2 µM | OVCAR-4 > 100 µM | NCI-H23 45.4 µM | SW-620 61 µM | SF-539 > 100 µM | SK-MEL-5 > 100 µM | SK-MEL-28 49.3 µM | MCF7 26.7 µM | SR 38.3 µM | MDA-MB-435 55.3 µM | U-251 > 100 µM | RPMI-8226 49.4 µM | DU-145 > 100 µM

O=S(=O)(O)c1cc(Cl)c(O)c2ncc(Cl)cc12
inactive: M14 90.8 µM | PC-3 > 100 µM | HOP-92 87.1 µM | UO-31 57 µM | MOLT-4 15.7 µM | OVCAR-4 42.7 µM | NCI-H23 72.4 µM | SW-620 56.8 µM | SF-539 50.4 µM | SK-MEL-5 84.3 µM | SK-MEL-28 > 100 µM | MCF7 51.8 µM | SR 32.2 µM | MDA-MB-435 > 100 µM | RXF 393 > 100 µM | U-251 > 100 µM | RPMI-8226 45.2 µM | DU-145 > 100 µM

CC(C)OCC(O)COc1cc(=O)oc2ccccc12 (stereo not given)
inactive: M14 > 100 µM | PC-3 > 100 µM | HOP-92 > 100 µM | UO-31 > 100 µM | SK-OV-3 > 100 µM | MOLT-4 > 100 µM | NCI-H522 > 100 µM | OVCAR-4 > 100 µM | NCI-H23 > 100 µM | SW-620 > 100 µM | SK-MEL-5 > 100 µM | SK-MEL-28 > 100 µM | MCF7 > 100 µM | SR > 100 µM | MDA-MB-435 > 100 µM | U-251 > 100 µM | RPMI-8226 > 100 µM | DU-145 > 100 µM

N=NCC(=O)OC(COCc1ccccc1)COCc1ccccc1
inactive: PC-3 70 µM | HOP-92 10.2 µM | UO-31 21.9 µM | SK-OV-3 > 100 µM | MOLT-4 39.7 µM | NCI-H522 > 100 µM | OVCAR-4 69.7 µM | NCI-H23 > 100 µM | SW-620 > 100 µM | SK-MEL-5 49.1 µM | SK-MEL-28 > 100 µM | MCF7 65 µM | SR > 100 µM | MDA-MB-435 > 100 µM | RXF 393 > 100 µM | U-251 > 100 µM | RPMI-8226 > 100 µM | DU-145 36.3 µM

CC(C)(CCC(C)(C)N1OC1c1ccccc1)N1OC1c1ccccc1 (stereo not given)
inactive: PC-3 19.9 µM | HOP-92 33.4 µM | UO-31 20 µM | SK-OV-3 62.8 µM | NCI-H522 7.16 µM | OVCAR-4 86.3 µM | NCI-H23 55.3 µM | SW-620 78 µM | SF-539 22.4 µM | SK-MEL-5 17.5 µM | SK-MEL-28 > 100 µM | MCF7 28.7 µM | SR 14.1 µM | MDA-MB-435 32.8 µM | U-251 72.9 µM | RPMI-8226 28.9 µM | DU-145 88.7 µM
